Columns and labels:
IL-8 = IL-8 release by human skin explants, pollution model (BaP), ELISA; format: cell-based; conditions: PMA 1 μg/ml systemic, 24 h, without pollution
Protocol: b)—The product was systemically applied for 24 hours, on human skin explants (diameter of 8 mm), provided by Biopredic™ International (Rennes), which derived from mammary plastic surgery (person);
c)—The product was then applied again during pollution, for another 24 hours. Said pollution was induced in this model by application of an environmental pollutant, benzo(a)pyrene (3,4-benzopyrene/BaP) as systemic treatment, i.e. in the culture medium. This pollutant induces IL-8 release (SEPhRA results).
a)—A 2% (DE) HCR extract is diluted in the culture medium to obtain a 0.1% (DE) HCR extract, which is used as the test compound.
b)—Said HCR extract was systemically applied on the skin explants as a twenty-four hours pre-treatment. […]
e)—In order to validate the IL-8 titration, an additional condition was evaluated, i.e. stimulation with a reference pro-inflammatory molecule PMA (Phorbol 12-myristate 13-acetate, Sigma P8139), at 1 μg/ml. […]
d)—The inflammatory cytokine IL-8 was then measured out with a commercial kit from Bio-Techne/R&Dsystems (D8000C), which is an ELISA method. […] Titration raw data were obtained by measuring the absorbance or the optical density (OD) at 450 nm wavelength, with 570 nm as a reference.
e)—The concentrations of IL-8 measured in the samples were determined by using a concentration range of an IL-8 standard. […]

[1] = system: murine B16 melanocytes (B16-F0 line); assay: Melanin titration in B16 melanocytes (melanogenesis); format: cell-based; conditions: Mus musculus, B16F0; kojic acid 1 mM; read-out: Inhibition of the melanin release in the culture medium
Protocol: • 1)—Background Information The aim of this study is to evaluate the effects of HCR extracts on melanogenesis in an in vitro model of murine B16 melanocytes. Cells used in this study were murine melanocytes (B16-F0 line, LGC standards, ATCC-CRL-6322) extracted from murine skin. This cells lines synthesizes a great quantity of melanin which is released in the culture media (so called supernatants), so a titration by spectrophotometry is easy to achieve. These melanocytes were cultured as monolayers; the test compounds were applied during seventy two hours and the synthesized melanin was then released and measured out in the supernatants. A XTT assay was previously performed, to check the cells viability, in order to determine the concentrations to be tested, as described in Example 2. • 2)—Dose Determination (CytotoxicityNiability Check by XTT Assay) and Evaluated Test Compound
B16 melanocytes were seeded in 24-wells plates. […]
Cells were seeded into 24-wells plates (at a cell density of […], i.e. 31,250 B16/cm^2), in the same medium as previously described, one day before treatment (incubation at 37° C./5% CO2). […] After 48 or 72 hours of treatment, the supernatants were homogenized and aliquots were transferred to 96-well plates for spectrophotometry reading at 492 nm wavelength (reading in duplicate). […]

Compound | IL-8 release, change compared to untreated/unpolluted control (IL-8) | inhibition at 1000 µM [1] [%]
CCCCCCCCCCCCCC(=O)O[C@@H]1[C@@H](C)[C@@]2(O)[C@@H](C=C(CO)C[C@]3(O)C(=O)C(C)=C[C@@H]23)[C@@H]2C(C)(C)[C@]12OC(C)=O [PMA, Phorbol 12-myristate 13-acetate] | +224% | 
O=c1cc(CO)occ1O [kojic acid] |  | > 90
